Laboratory results reported in article PMC6952399, “Structures of lipoprotein signal peptidase II from Staphylococcus aureus complexed with antibiotics globomycin and myxovirescin” (Nature Communications, 2020).
Several values for one entry are separate records, joined by “and”; a condition that tells them apart may be missing. Identical values can stand only once.

Molecular target: T1, LspPae (lipoprotein signal peptidase II from Pseudomonas aeruginosa) (Pseudomonas aeruginosa, UniProt Q9HVM5)
T1 construct: made in house
T1 sequence (Q9HVM5 1-169): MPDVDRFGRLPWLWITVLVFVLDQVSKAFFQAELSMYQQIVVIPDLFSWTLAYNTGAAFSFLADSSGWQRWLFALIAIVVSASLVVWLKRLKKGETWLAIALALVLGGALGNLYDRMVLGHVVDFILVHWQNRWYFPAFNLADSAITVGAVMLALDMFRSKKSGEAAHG
Test: FRET lipopeptide peptidase assay, LspPae
Format: biochemical
Settings: for Fluorescence (RFU): FRET substrate + LspA + Globomycin; for Rate (RFU/min) / Normalised rate (Vi/V0): replicates 1 and 2; for Ki: estimated Ki’ (apparent inhibition constant)
Protocol: FRET activity assays. A FRET based assay was developed using a labelled lipopeptide substrate (Supplementary Methods, Supplementary Fig. 3b) to directly monitor the protease activity of LspA. The optimised LspMrs assay buffer included 100 mM Tris/HCl pH 7.8, 150 mM NaCl and 0.09%(w/v) DDM. The corresponding optimized buffer for LspPae included 100 mM MES/NaOH pH 5.6, 150 mM NaCl and 0.05%(w/v) LMNG. All assays were performed at 37 °C.
Reaction mixtures were prepared by vortexing (Clifton, cyclone CM-1) for 2 s and incubated at 37 °C, 800 rpm for 10 to 30 min. […] For dose-response assays, the final DMSO concentration in all reactions was 10%(v/v). Reaction mixtures were pipetted into wells of a 96- (Thermo Scientific) or a 384-well plate (4titude®) and incubated for 10 min at 37 °C in a SpectraMax M3 or a SpectraMax M5e plate reader (Molecular devices) prior to starting the assay. Assays were initiated by adding enzyme to a final concentration in the range 10–300 nM. Total reaction mixture volume was 50 μL. Reactions were monitored by fluorescence (Ex/Em, 320 nm/420 nm) for 30 to 60 min at 37 °C. Initial rates were calculated from the fluorescence intensity versus time progress curves (Supplementary Figs. 5 and 6). Occasionally, lag periods in the progress curves were observed (Supplementary Discussion). In such cases, initial rates were calculated after the lag period had passed (typically 1–5 min) and a steady rate had been established. Dose-response plots to determine IC50 values were generated using Prism® 5 software from GraphPad.
It was possible to convert units of fluorescence change into moles of substrate consumed or products formed because pure products of LspA action on Abz-LALAGC*SS-nY-NH2 had been synthesized and were available. These were used to create a standard curve of fluorescence versus moles of the two products in equimolar amounts and to calculate specific activity values. […]
One consequence of LspMrs having a relatively low specific activity is that, in order to get a reliable signal in activity assays, it was necessary to raise enzyme concentration. For kinetic measurements generally, it is desirable to use an enzyme concentration that is much lower than that of the substrate. In this situation, the usual assumption that added and free substrate concentrations are equal is valid. At high enzyme concentrations [E] therefore, and especially in the case of tight ligand binding where the inhibition constant, Ki, is small, a measured IC50 is limited to [E]/2 4–6. In such circumstances, a meaningful IC50 or Ki can only be obtained with considerable effort. With a few exceptions in the current study, this situation prevailed with both LspA orthologs where IC50 values came close to [E]/2 (Table 1 and Supplementary Table 3, Supplementary Fig. 6). […]
Inhibition of LspA from E. coli by globomycin has been described as non-competitive7. The evidence provided in support o f this conclusion included an insensitivity of IC 50 to substrate concentration and the fact that the Vmax but not the K m changed with globomycin concentration. It was of interest to determine if a similar mode of inhibition applied to LspPae and LspMrs. From published work7–9 and from FRET-based kinetics measurements reported here, we know that globomycin binds with high affinity (Supplementary Fig. 6). Tight binding means that a more in-depth analysis must be carried out in order to identify inhibition type. For such analysis, it is important to know active enzyme concentration accurately. Fortunately, it was possible to use the property of tight inhibitor binding to measure the concentration of active enzyme ( Supplementary Fig. 18a). In the case of LspPae, the estimated value and the concentration determined spectroscopically agreed remarkably well. Parenthetically we note that knowing active LspPae concentration accurately enabled a characterization of the myxovirescin sample used in this study. Myxovirescin also binds tightly to LspA (Supplementary Fig. 6). […]

[1] = Suppl. Fig. 18a, [Globomycin] 0.02 M
[2] = Suppl. Fig. 18a, [Globomycin] 0.08 M
[3] = Suppl. Fig. 18a, [Globomycin] 0.1 M
[4] = Suppl. Fig. 18a, [Globomycin] 0.12 M
[5] = Suppl. Fig. 18a, [Globomycin] 0.15 M
[6] = Suppl. Fig. 18a, [Globomycin] 0.25 M

## CCCCCC[C@H]1OC(=O)CNC(=O)[C@H]([C@H](C)O)NC(=O)[C@H](CO)NC(=O)[C@H]([C@H](C)CC)NC(=O)[C@H](CC(C)C)N(C)C(=O)[C@@H]1C [globomycin]
5-fold molar excess of antibiotic added 20 to 30 min after start of reaction
  inhibitor on-rates: fast
Time 26.5 min
  Fluorescence (RFU): 472.821 RFU
Time 27 min
  Fluorescence (RFU): 466.895 RFU
Time 27.5 min
  Fluorescence (RFU): 470.521 RFU
Time 28 min
  Fluorescence (RFU): 460.426 RFU
Time 28.5 min
  Fluorescence (RFU): 463.196 RFU
Time 29 min
  Fluorescence (RFU): 462.392 RFU
Time 29.5 min
  Fluorescence (RFU): 469.501 RFU
Time 30 min
  Fluorescence (RFU): 460.374 RFU
Time 30.5 min
  Fluorescence (RFU): 459.928 RFU
Time 31 min
  Fluorescence (RFU): 456.673 RFU
Time 31.5 min
  Fluorescence (RFU): 461.288 RFU
Time 32 min
  Fluorescence (RFU): 457.637 RFU
Time 32.5 min
  Fluorescence (RFU): 459.756 RFU
Time 33 min
  Fluorescence (RFU): 461.040 RFU
Time 33.5 min
  Fluorescence (RFU): 455.548 RFU
Time 34 min
  Fluorescence (RFU): 459.251 RFU
Time 34.5 min
  Fluorescence (RFU): 461.912 RFU
Time 35 min
  Fluorescence (RFU): 462.029 RFU
Time 35.5 min
  Fluorescence (RFU): 459.871 RFU
Time 36 min
  Fluorescence (RFU): 456.705 RFU
Time 36.5 min
  Fluorescence (RFU): 457.128 RFU
Time 37 min
  Fluorescence (RFU): 457.399 RFU
Time 37.5 min
  Fluorescence (RFU): 460.693 RFU
Time 38 min
  Fluorescence (RFU): 454.401 RFU
Time 38.5 min
  Fluorescence (RFU): 457.430 RFU
Time 39 min
  Fluorescence (RFU): 456.060 RFU
Time 39.5 min
  Fluorescence (RFU): 454.659 RFU
Time 40 min
  Fluorescence (RFU): 457.707 RFU
Time 40.5 min
  Fluorescence (RFU): 450.482 RFU
Time 41 min
  Fluorescence (RFU): 454.135 RFU
Time 41.5 min
  Fluorescence (RFU): 449.262 RFU
Time 42 min
  Fluorescence (RFU): 454.556 RFU
Time 42.5 min
  Fluorescence (RFU): 450.049 RFU
Time 43 min
  Fluorescence (RFU): 449.698 RFU
Time 43.5 min
  Fluorescence (RFU): 456.047 RFU
Time 44 min
  Fluorescence (RFU): 454.046 RFU
Time 44.5 min
  Fluorescence (RFU): 452.003 RFU
Time 45 min
  Fluorescence (RFU): 447.269 RFU
Time 45.5 min
  Fluorescence (RFU): 454.250 RFU
Time 46 min
  Fluorescence (RFU): 454.835 RFU
Time 46.5 min
  Fluorescence (RFU): 452.245 RFU
Time 47 min
  Fluorescence (RFU): 453.938 RFU
Time 47.5 min
  Fluorescence (RFU): 452.432 RFU
Time 48 min
  Fluorescence (RFU): 453.748 RFU
Time 48.5 min
  Fluorescence (RFU): 446.264 RFU
Time 49 min
  Fluorescence (RFU): 454.134 RFU
Time 49.5 min
  Fluorescence (RFU): 458.300 RFU
Time 50 min
  Fluorescence (RFU): 453.740 RFU
Time 50.5 min
  Fluorescence (RFU): 458.019 RFU
Time 51 min
  Fluorescence (RFU): 452.119 RFU
IC50, 20 nM LspPae, substrate 2.5 µM
  IC50: 5.32 nM and 7.73 nM
IC50, 20 nM LspPae, substrate 5 µM
  IC50: 6.43 nM and 11.1 nM
IC50, 20 nM LspPae, substrate 7.5 µM
  IC50: 6.63 nM and 10.1 nM
IC50, 20 nM LspPae, substrate 10 µM
  IC50: 7.18 nM and 9.58 nM
IC50, 20 nM LspPae, substrate 20 µM
  IC50: 5.81 nM and 8.79 nM
IC50, 20 nM LspPae, substrate 30 µM
  IC50: 5.73 nM and 9.79 nM
IC50, FRET, 0.1 µM enzyme, 30 µM substrate, initial rates
  IC50: 57 nM
IC50, LspPae concentration 10 nM
  IC50: 5.5 nM and 7.7 nM
IC50, LspPae concentration 20 nM
  IC50: 10.6 nM and 17.6 nM
IC50, LspPae concentration 40 nM
  IC50: 22.6 nM and 26.4 nM
IC50, LspPae concentration 60 nM
  IC50: 27.8 nM and 39 nM
IC50, LspPae concentration 80 nM
  IC50: 37.9 nM and 55.3 nM
IC50, LspPae concentration 100 nM
  IC50: 52.6 nM and 61.3 nM
LspPae + Globomycin, log [globomycin] (µM) -0.60
  Rate (RFU/min): 0.6 RFU/min and 0.7 RFU/min
LspPae + Globomycin, log [globomycin] (µM) -0.82
  Rate (RFU/min): 0.856 RFU/min and 1.1 RFU/min
LspPae + Globomycin, log [globomycin] (µM) -0.92
  Rate (RFU/min): 0.9 RFU/min and 0.95 RFU/min
LspPae + Globomycin, log [globomycin] (µM) -1.00
  Rate (RFU/min): 4.1 RFU/min and 3.2 RFU/min
LspPae + Globomycin, log [globomycin] (µM) -1.10
  Rate (RFU/min): 12.3 RFU/min and 11.9 RFU/min
LspPae + Globomycin, log [globomycin] (µM) -1.30
  Rate (RFU/min): 31.7 RFU/min and 30.1 RFU/min
LspPae + Globomycin, log [globomycin] (µM) -1.70
  Rate (RFU/min): 42.7 RFU/min
[1]
  Normalised rate (Vi/V0): 0.8723 and 0.8656
  Rate (RFU/min): 40.92 RFU/min and 41.48 RFU/min
Suppl. Fig. 18a, [Globomycin] 0.05 M
  Normalised rate (Vi/V0): 0.6284 and 0.6375
[2]
  Normalised rate (Vi/V0): 0.2526 and 0.2533
  Rate (RFU/min): 11.85 RFU/min and 12.14 RFU/min
[3]
  Normalised rate (Vi/V0): 0.07205 and 0.07513
  Rate (RFU/min): 3.38 RFU/min and 3.6 RFU/min
[4]
  Normalised rate (Vi/V0): 0.01684 and 0.01523
  Rate (RFU/min): 0.79 RFU/min and 0.73 RFU/min
[5]
  Normalised rate (Vi/V0): 0.0162 and 0.00793
  Rate (RFU/min): 0.76 RFU/min and 0.38 RFU/min
[6]
  Normalised rate (Vi/V0): 0.02132 and 0.008139
  Rate (RFU/min): 1 RFU/min and 0.39 RFU/min
Suppl. Fig. 18a
  Rate (RFU/min): 29.48 RFU/min and 30.55 RFU/min
Average IC50, 20 nM LspPae, substrate 2.5 or 5 to 30 µM
  IC50: ~10 nM
Morrison analysis, 30 µM substrate, 0.1 µM LspPae
  Ki: 0.74 ± 0.41 nM
From dependence of IC50 on enzyme concentration, IC50 = Ki’ + [E]/2
  Ki: 1.96 ± 3 nM
